Experimental data as given in patent publication US11633458B2, “Compositions and methods for treating melanoma” (University of Virginia Patent Foundation, priority 2013, dated 2023).

Assays:
[1] = test system: melanoma cell lines VMM1, DM13, DM93 and DM122; assay: Intracellular staining of chemokines CCL2-5, CXCL9, CXCL12 by flow cytometry after overnight TLR agonist stimulation with or without IFNγ; type: cell-based, human; conditions: TLR agonist alone
Procedure: (§1) Stained cells were collected on the FACSCalibur instrument (BD Biosciences) and analyzed with FlowJo 8.8.6 software (TreeStar, Ashland, Oreg.). Analyses were conducted on live cells (95%) as defined by forward and side-angle scatter. Gates were set based on isotype-matched (ISO) controls or fluorescence-minus-one (FMO) controls.
(§2) These were used with or without rh-IFNγ (1000 IU/mL; PeproTech). After stimulation, cells were detached using Accutase.
(§3) Cells were fixed and permeablilized using the BD Cytofix/Cytoperm kit and then stained with the indicated antibodies. Staining antibodies: CCL2-PE, CCL3-PE, CCL4-PE, CCL5-PE, CXCL10-PE (BD Pharmingen), CXCL9-PE, CXCL12-APC (R&D Systems), IgG1-PE, and IgG2α-PE (Caltag). Flow cytometric analyses were conducted as described.

DM13 cells = assay: TLR agonist dose response assay, CXCL10 producing cells by flow cytometry, constant IFNγ; type: cell-based, human; conditions: for effect on CXCL10 induction: in the presence of IFNγ, even at much higher concentrations than in prior experiments; for optimal concentration for CXCL10 production: constant concentration of IFNγ
Procedure: FIGS. 3A-3D. […] Melanoma cells were analyzed for induced chemokine production after overnight stimulation with the indicated TLR agonists with (+) or without (−) IFNγ. FIG. 3A-FIG. 3B (12 panels/images each). […] Scale bars represent 100 μm. FIG. 3C. Graphic illustration of ELISA assays to detect CXCL10 from supernatants of stimulated melanoma cells DM13 (left) and VMM1 (right). FIG. 3D. TLR agonist dose response assay. […] Data are from 2 independent experiments.
as §2, §3

breast cancer cell lines = assay: CXCL10 production by breast cancer cell lines, flow cytometry; type: cell-based, human; conditions: n=4; printed 'LPS, PAM3CSK4, and MALP-2+IFNγ', +IFNγ may apply to all three
Procedure: Breast cancer cells were stimulated with TLR agonists overnight alone or in combination with IFNγ (IFNγ stimulation indicated as +). CXCL10 production was assessed by flow cytometry from the indicated breast cancer cell lines (n=4).

lung cancer cell lines = assay: CXCL10 production by lung cancer cell lines, flow cytometry; type: cell-based, human; conditions: lung cancer cell lines n=8 (FIG. 16)
Procedure: FIG. 16 (line graph): Treatment of Lung Cancer cells with TLR1/2 agonists-TLR1/2 agonists can induce some CXCL10 production from lung cancer cell lines. Lung cancer cells were stimulated with TLR agonists overnight alone or in combination with IFNγ (IFNγ stimulation indicated as +). CXCL10 production was assessed by flow cytometry from the indicated lung cancer cell lines (n=8).

[2] = test system: cells from fresh surgically isolated melanoma metastases; assay: CXCL10 ELISA of supernatants of stimulated cells from fresh melanoma metastases; type: cell-based, human; conditions: patient 1 tumor (FIG. 6E)
Procedure: Melanoma cell lines or cells from patient samples were stimulated with TLR agonists as described, but without GolgiStop. Media containing the cell-secreted chemokines were collected and centrifuged to remove cell debris. CXCL10 was measured using the BD OptEIA human IP-10 ELISA Set with BD OptEIA buffers (BD Biosciences).

21 melanoma cell lines = assay: TLR2 and TLR6 staining by flow cytometry with or without IFNγ; type: cell-based, human; conditions: IFNγ stimulation, data not shown
Procedure: Melanoma cell lines were seeded into 6-well plates at 1×10^6 cells/well in RPMI and stimulated overnight in the presence or absence of recombinant human IFNγ (rh-IFNγ, 1000 IU/mL; PeproTech, Rocky Hill, N.J.). After stimulation, cells were detached using Accutase (Millipore, Billerica, Mass.), stained with indicated antibodies and fixed using Cytofix (BD Biosciences, San Jose, Calif.). Surface staining antibodies: TLR2-Alexa647, Streptavidin-PE (BD Pharmigen, San Jose, Calif.), TLR6-Biotin (eBioscience, San Diego, Calif.), TLR4-APC (R&D Systems, Minneapolis, Minn.). Intracellular staining: cells were fixed and permeabilized using the BD Cytofix/Cytoperm kit (BD Biosciences) and stained with appropriate antibodies: TLR7-CFS, IgG2α-CFS (R&D Systems), TLR3-PE, TLR9-APC (eBioscience), TLR8-Alexa488 (Dendritics, San Diego, Calif.), IgG1-PE, and IgG2α-PE (Caltag, Towcester, UK).
as §1

[3] = test system: melanoma cell lines VMM1, DM13, DM93 & VMM39; assay: Gene expression profiling (gene array) of melanoma cell lines after IFNγ or TLR2/6 agonist + IFNγ; type: cell-based, human; conditions: Vs No treatment; Anova p≤0.005, matched comparisons
Procedure: To assess global effects of TLR2/6 agonists and IFNγ stimulation on melanoma, gene expression profiling of melanoma cell lines was performed.

[4] = test system: cells from freshly resected human melanoma metastases; assay: CXCL10 production by cells of freshly resected melanoma metastases, flow cytometry; type: cell-based; conditions: patients 1-3 (FIG. 6A)
Source text: FIGS. 6A-6E. Patient melanomas generate CXCL10 in response to TLR2/6 agonist and IFNγ. […] Cell subsets were defined as: melanoma (CD45^negS100^+), endothelial (S100^negCD45^negCD105^+), B-cell (CD20^+), DC (CD11c^+HLADR^+), macrophage (CD14^+), NK-cell (CD56^+) and T-cell (CD3^+). FIG. 6A. The percent of melanoma cells that are CXCL10^+ from patient 1 (top), patient 2 (middle) and patient 3 (bottom) tumors after stimulation with the indicated conditions (left panel). MFI for CXCL10 expression of melanoma cells from patient 1 melanoma (top) and patient 2 melanoma (middle) patient 3 melanoma (bottom) (right panel). FIG. 6B-FIG. 6D. […] Graph of CXCL10 measured by ELISA assay, cells are from patient 1 tumor.
Having observed production of CCL3 and CXCL10 by cultured human melanoma cell lines in vitro, we asked whether the same would be observed with melanoma cells isolated from fresh surgically-excised human metastases. TLR2 and TLR6 are expressed on some immune cell subsets (31; 32), thus we also assessed whether TLR2/6 agonists and IFNγ may impact CXCL10 production from immune cell subsets in patient tumor specimens. […] The percentage of live cells from tumor assessed by viability marker were approximately 60%, 50%, 70%, and 40% for patients 1-4 respectively (data not shown).

[5] = test system: melanoma cell lines VMM1, DM13, DM93 and DM122; assay: Intracellular CXCL10 staining by flow cytometry after overnight stimulation with TLR agonists with or without IFNγ; type: cell-based, human; conditions: averaged across the four melanoma lines, flow cytometry (FIG. 2B)
Procedure: as §1, §2, §3

With `CC(C)Cn1cnc2c(N)nc3ccccc3c21` [imiquimod] the chemokine production [1] was “little chemokine production” and the “effect on CXCL10 induction” value (DM13 cells) was “little effect”.
Pam3CysSerLys4 [Pam3CSK4] was tested, and the “cell lines with induced CXCL10 production” value (breast cancer cell lines) was 2/4 and the CXCL10 production (lung cancer cell lines) was “some CXCL10 production can be induced”.
With “fibroblast-stimulating lipopeptide-1 [FSL-1]” the chemokine production [1] was “little chemokine production” and the “optimal concentration for CXCL10 production” value (DM13 cells) was 5 µg/mL.
With “interferon gamma [IFNγ, recombinant human IFNγ (PeproTech), used at 1000 IU/mL]” the CXCL10 in supernatants [2] was ~400 pg/mL, the “expression of TLR2 or TLR6” value (21 melanoma cell lines) was “neither was impacted” and the “fold change of gene induction, CXCL9” value [3] was 20.7 fold change. For the same compound, the “fold change of gene induction, CXCL10” value [3] was 36.5 fold change, the “fold change of gene induction, GBP1” value [3] was 50.6 fold change and the “fold change of gene induction, GBP4” value [3] was 84.9 fold change. The “fold change of gene induction, IFI30” value [3] was 14.4 fold change, the “fold change of gene induction, IFITM1” value [3] was 14.4 fold change and the “fold change of gene induction, IRF1” value [3] was 30.2 fold change. The “fold change of gene induction, OAS2” value [3] was 24.1 fold change, the “fold change of gene induction, TNFSF10” value [3] was 25.7 fold change and the “fold change of gene induction, XAF1” value [3] was 22.8 fold change. The “CXCL10 production by melanoma cells (S100+CD45neg), percentage of CXCL10+ cells and MFI” value [4] was “produced CXCL10” and the “percent of cells producing CXCL10” value [5] was 7%.
With lipopolysaccharide [LPS] the “cell lines with induced CXCL10 production” value (breast cancer cell lines) was 2/4, the chemokine production [1] was “little chemokine production” and the “concentration inducing CXCL10 at levels comparable to MALP-2 or FSL-1 and IFNγ” value (DM13 cells; +IFNγ (FIG. 3D)) was 100 µg/mL. For the same compound, the “concentration inducing comparable levels of CXCL10” value (DM13 cells; in combination with IFNγ, compared with TLR2/6 agonists) was ≥ 100 µg.
“macrophage-activating lipopeptide 2 [MALP-2]” was tested, and the chemokine production [1] was “little chemokine production” and the “optimal concentration for CXCL10 production” value (DM13 cells) was 0.1 µg/mL.
With poly-ICLC the chemokine production [1] was “little chemokine production” and the “effect on CXCL10 induction” value (DM13 cells) was “little effect”.
